According to patent publication US8710237B2, “Small molecule inhibitors of kynurenine-3-monooxygenase” (The J. David Gladstone Institute, priority 2006, dated 2014):
Marks after values point to notes of the source that are not given here.

Columns and labels:
[1] = system: kynurenine-3-monooxygenase; test: KMO inhibition, radiometric assay (Erickson et al.); type: biochemical; conditions: 10 μM compound
Description: The KMO inhibiting activities of the compounds of the present invention were evaluated using standard methods. See Erickson et al., A Radiometric Assay for Kynurenine 3-Hydroxylase Based on the Release of ^3H2O During Hydroxylation of L-[3,5-^3H]-Kynurenine, Anal. Biochem. 1992, 205, 257-262, the disclosure of which is hereby incorporated by reference.
The IC50 value is the half maximal inhibitory concentration and represents the concentration of an inhibitor that is required for 50% inhibition of an enzyme activity and the percent inhibition measures the amount of enzyme activity inhibited at a given concentration of compound.

3-HK in the brain = test: In vivo comparison: 3-HK in the brain after oral administration (FIG. 12)
Source text: The structure of the compound 61-8048 is as below:

[2] = system: R6/2 model of Huntington's disease; test: Survival in a mouse model of Huntington's disease (FIG. 13); type: in vivo; conditions: R6/2 mice
Source text: The structure of the compound M is

Compound | % inhibition at 10 μM [1] | melting point [°C] | further results
COc1ccc(S(=O)(=O)Nc2nc(-c3cccc([N+](=O)[O-])c3)c(CN3CCCCC3)s2)cc1OC [C, 3,4-dimethoxy-N-[4-(3-nitrophenyl)-5-(piperidin-1-ylmethyl)-1,3-thiazole-2-yl]benzenesulfonamide] | 24% |  | 
COc1ccc(S(=O)(=O)Nc2nc(-c3cccc([N+](=O)[O-])c3)c(CN3CCCC3)s2)cc1OC [B, 3,4-dimethoxy-N-[4-(3-nitrophenyl)-5-(pyrrolidin-1-ylmethyl)-1,3-thiazole-2-yl]benzenesulfonamide] | 9* % | 198 to 200 | 
COc1ccc(S(=O)(=O)Nc2nc(-c3cccc([N+](=O)[O-])c3)cs2)cc1OC [Compound 61-8048, 3,4-Dimethoxy-N-[4-(3-nitrophenyl)thiazol-2-yl]benzenesulfonamide, reference compound] |  |  | decrease of 3-HK in the brain (3-HK in the brain): does not decrease; effect on survival ([2]; 100 mg/kg/day, not shown in the figure): did not have a significant effect on survival
COc1ccc(S(=O)(=O)Nc2nc(-c3cccc([N+](=O)[O-])c3)c(CN3CCN(C)CC3)s2)cc1OC [E, 3,4-dimethoxy-N-[4-(3-nitrophenyl)-5-((4-methylpiperazin-1-yl)methyl)-1,3-thiazole-2-yl]benzenesulfonamide] | 6* % | 215 to 217 | 
COc1ccc(S(=O)(=O)Nc2nc(-c3cccc([N+](=O)[O-])c3)c(CN3CCOCC3)s2)cc1OC [D, 3,4-dimethoxy-N-[4-(3-nitrophenyl)-5-morpholinomethyl-1,3-thiazole-2-yl]benzenesulfonamide] | 64% | 143 | 
COc1ccc(S(=O)(=O)Nc2nc(-c3cccc([N+](=O)[O-])c3)c(CN(C)C)s2)cc1OC [A, 3,4-dimethoxy-N-[4-(3-nitrophenyl)-5-dimethylaminomethyl-1,3-thiazole-2-yl]benzenesulfonamide] | 58% | 203 | 
COc1ccc(S(=O)(=O)N(CN2CCCCC2)c2nc(-c3cccc([N+](=O)[O-])c3)cs2)cc1OC [Compound M] |  |  | magnitude of the effect of protection (survival) [2]: equal to or greater to that reported for any single agent administered in this model
COc1ccc(S(=O)(=O)Nc2nc(-c3cccc([N+](=O)[O-])c3)c(CN3CCSCC3)s2)cc1OC |  | 136 | 

Continued, in another order:

% inhibition at 10 μM [1] | melting point [°C] | Compound | further results
73% | 143 to 145 | CCCN(C)Cc1sc(NS(=O)(=O)c2ccc(OC)c(OC)c2)nc1-c1cccc([N+](=O)[O-])c1 [G, 3,4-dimethoxy-N-[4-(3-nitrophenyl)-5-(methylpropylamino)methyl-1,3-thiazole-2-yl]benzenesulfonamide] | 
52% |  | COc1ccc(S(=O)(=O)N(C)c2nc(-c3cccc([N+](=O)[O-])c3)cs2)cc1OC [T, 3,4-dimethoxy-N-[4-(3-nitrophenyl)thiazol-2-yl]-N-(methyl)benzenesulfonamide] | 
85% |  | COC(=O)N(c1nc(-c2cccc([N+](=O)[O-])c2)cs1)S(=O)(=O)c1ccc(OC)c(OC)c1 [W, 3,4-dimethoxy-N-[4-(3-nitrophenyl)thiazol-2-yl]-N-(methylcarboxylate)benzenesulfonamide] | 
81% |  | CCOC(=O)CN(c1nc(-c2cccc([N+](=O)[O-])c2)cs1)S(=O)(=O)c1ccc(OC)c(OC)c1 [U, 3,4-dimethoxy-N-[4-(3-nitrophenyl)thiazol-2-yl]-N-[(ethylcarboxylate)methyl]benzenesulfonamide] | 
84% |  | CCOC(=O)N(c1nc(-c2cccc([N+](=O)[O-])c2)cs1)S(=O)(=O)c1ccc(OC)c(OC)c1 [V, 3,4-dimethoxy-N-[4-(3-nitrophenyl)thiazol-2-yl]-N-(ethylcarboxylate)benzenesulfonamide] | 
74% | 165 to 168 | CCN(CC)Cc1sc(NS(=O)(=O)c2ccc(OC)c(OC)c2)nc1-c1cccc([N+](=O)[O-])c1 [F, 3,4-dimethoxy-N-[4-(3-nitrophenyl)-5-(diethylamino)methyl-1,3-thiazole-2-yl]benzenesulfonamide] | 
